Laboratory results as given in PubChem BioAssay (NCI).
Where “and” joins values, the source holds several entries; their conditions need not be identical. Equal entries are not always repeated.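 Briefly, cells in 96-well plates were exposed to five compound concentrations for 48 h, and endpoints were estimated by linear interpolation. GI50 = concentration required for 50% inhibition of growth. TGI marks complete inhibition of growth.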

Key:
Assay in all cases: DTP human tumour cell line panel, 48 h
[1] = test system: MDA-N
[2] = test system: UO-31 renal
[3] = test system: SK-MEL-2 melanoma
[4] = test system: OVCAR-8 ovarian
[5] = test system: IGROV1 ovarian
[6] = test system: NCI-H460 lung
[7] = test system: PC-3 prostate
[8] = test system: HT29 colon
[9] = test system: COLO 205 colon
[10] = test system: HCT-15 colon

Compound | TGI [1] [µM] | TGI [2] | TGI [3] [µM] | TGI [4] [µM] | TGI [5] [µM] | TGI [6] [µM] | TGI [7] [µM] | TGI [8] [µM] | TGI [9] [µM] | TGI [10] [µM] | GI50 [2] [µM] | GI50 [4] [µM] | GI50 [5] [µM] | GI50 [6] [µM] | GI50 [7] [µM] | GI50 [9] [µM] | GI50 [10] [µM]
COCN1CCN=c2c1c1c3c(c4ccccc4n23)CCC1 | > 100 | > 100 µM | > 100 | > 100 | > 100 | > 100 | > 100 | > 100 | > 100 | > 100 | – | – | – | – | – | – | –
COC(=O)c1ccc(CCc2cc(O)ccc2O)cc1 | 20.5 | 7.04 µM | 55.6 | > 52.7 | 23.8 | > 68.4 | 17.5 | > 79.9 | 54.5 | 27.5 | – | – | – | – | – | – | –
C[N+](C)([O-])CCCNc1c2ccccc2nc2cccc([N+](=O)[O-])c12 | 0.524 | 4.34 µM | 0.421 | 20.7 | – | 0.707 | 1.26 | 0.606 | 0.322 | 4.93 | – | – | – | – | – | – | –
Cc1ccc(NC(=S)Nc2c(C)n(C)n(-c3ccccc3)c2=O)cc1 | > 100 | > 100 µM | – | > 100 | > 100 | > 100 | > 100 | > 100 | > 100 | > 100 | – | – | – | – | – | – | –
Cc1cc(NS(=O)(=O)c2ccc(NC(=O)c3cccc4c(NNc5ccc(S(=O)(=O)N=C(N)N)cc5)c5ccccc5nc34)cc2)no1 | > 100 | > 100 µM | 64.2 | > 100 | > 100 | > 100 | > 100 | 92.6 | > 100 | > 100 | – | – | – | – | – | – | –
Cn1c(-c2ccc[se]2)ccc1-c1ccc(CO)[se]1 | > 60.5 | > 100 µM | > 100 | > 100 | – | 18.8 | > 100 | – | 6.01 | > 63.8 | – | – | – | – | – | – | –
COc1ccc(Oc2nc3ccc(C(F)(F)F)cc3nc2-c2ccccc2)cc1 | – | > 100 µM | > 100 | – | > 100 | > 100 | > 100 | > 100 | > 100 | > 100 | – | – | – | – | – | – | –
CC1CCc2c(sc3ncnc(N/N=C/c4ccc(Cl)c(Cl)c4)c23)C1 (stereo not drawn) | – | 43.8 µM | > 100 | 58 | > 100 | 42.2 | – | > 100 | 71.6 | > 100 | – | – | – | – | – | – | –
Fc1ccc(C2CC(c3cccc(Nc4ccncc4)c3)=NN2c2cc(Cl)cc(Cl)c2)cc1 (stereo not drawn) | – | 2.66 µM | – | 4.77 | 3.3 | 3.55 | 3.14 | – | 4.81 | 3.47 | 1.36 | 2.2 | 1.74 | 1.87 | 1.55 | 2.21 | 1.77
CN(C)CCOC(=O)c1ccc(N)cc1 | > 100 | > 100 µM | – | > 100 | 74.9 | > 100 | 35.1 | > 100 | > 100 | > 100 | – | – | – | – | – | – | –
O=C1CSC2=NCC3(NN12)c1ccccc1-c1ccccc13 | > 10 | > 10 µM | – | > 10 | > 10 | > 10 | > 10 | > 10 | > 10 | > 10 | – | – | – | – | – | – | –
O=C1OC2(C(F)(F)F)Oc3ccccc3CN2C12CCCCC2 (stereo not drawn) | > 100 | 84.3 µM | – | > 100 | > 100 | 66.4 | 88 | > 100 | 34.7 | 84.1 | – | – | – | – | – | – | –
CN(C)CCCNc1c2ccccc2nc2cccc([N+](=O)[O-])c12 | 0.00246 | 0.0107 µM and 0.0363 µM | 0.00221 | – | 0.00491 | 0.00781 | 0.00244 | – | – | 0.00142 | < 0.001 | < 0.001 | – | – | – | – | –
CC(=O)NC1=C(C)C(=O)c2c(nc3n2CCC3O)C1=O (stereo not drawn) | – | > 100 µM | 42.8 | 68.1 | > 89.7 | > 100 | – | > 100 | > 100 | > 100 | – | – | – | – | – | – | –
O=C(Nc1c(Cl)cc([N+](=O)[O-])cc1Cl)C(=O)C1C(=O)NC(=S)NC1=O | > 100 | > 100 µM | > 100 | > 100 | > 100 | > 100 | > 100 | > 100 | – | > 100 | – | – | – | – | – | – | –
COc1ccccc1NC(=S)N/N=C(/C)c1ccccn1 | > 100 | > 83.4 µM | > 88.7 | > 100 | – | 3.22 | > 100 | > 100 | – | > 100 | – | – | – | – | – | – | –
CCOC(=O)C(NC(=O)CC(C)C)(Nc1ccc(C(F)(F)F)cc1)C(F)(F)F (stereo not drawn) | > 100 | > 100 µM | > 100 | > 100 | > 100 | > 100 | > 100 | > 100 | – | > 100 | – | – | – | – | – | – | –
CCOC(=O)/C(C#N)=C/c1ccc(CO)o1 | > 100 | – | – | > 100 | > 100 | > 100 | > 100 | > 100 | > 100 | > 100 | – | – | – | – | – | – | –
Cc1ccc(C)c(COCCOCn2cc(Br)c(N)nc2=O)c1 | > 100 | > 100 µM | > 100 | > 100 | > 100 | > 100 | > 100 | – | > 100 | > 100 | – | – | – | – | – | – | –
CCOC(=O)CCc1c(C(=O)OCC)[nH]c(/C=C2\NC(=O)C(C)=C2CC)c1C | – | > 100 µM | 42.5 | 18.9 | 23.7 | > 100 | 63.3 | > 100 | > 100 | > 100 | – | – | – | – | – | – | –
COc1ccc(-c2nc(-c3cc4ccccc4oc3=O)cs2)cc1 | – | > 100 µM | > 100 | 56.3 | > 100 | > 100 | > 100 | > 100 | > 100 | > 100 | – | – | – | – | – | – | –
CCc1nn(S(=O)(=O)c2ccc(C)cc2)c2c1CS(=O)(=O)CC2 | > 100 | > 100 µM | > 100 | > 100 | – | > 100 | > 100 | > 100 | > 100 | > 100 | – | – | – | – | – | – | –
CCNC(=O)/C=C/CCC#Cc1ccc(-c2ccc(-c3cccs3)s2)s1 | – | > 100 µM | > 100 | > 100 | > 100 | > 100 | – | > 100 | 3.19 | > 100 | – | – | – | – | – | – | –
